# Experiments:
# [1] = tested on: BaF3; test: Antiproliferative activity against mouse BaF3 cells harboring wild type EGFR; type: functional, cell-based
# [2] = Antiproliferative activity against mouse Ba/F3 EGFR-D770-N771ins_SVD cells; type: functional, cell-based
# [3] = Selectivity index, ratio of IC50 for antiproliferative activity against mouse BaF3 cells harboring wild type EGFR to IC50 for antiproliferative activity against mouse Ba/F3 EGFR-V769_D770insASV cells; type: functional
# [4] = Antiproliferative activity against mouse Ba/F3 EGFR-V769_D770insASV cells; type: functional, cell-based
# [5] = tested on: BaF3; test: Antiproliferative activity against mouse BaF3 cells harboring wild type EGFR incubated for 48 hrs by Cell Titer-Glo assay; type: functional, cell-based; conditions: BaF3, 48 h
# [6] = Antiproliferative activity against mouse Ba/F3 EGFR-V769_D770insASV cells incubated for 48 hrs by Cell Titer-Glo assay; type: functional, cell-based
# [7] = Antiproliferative activity against mouse Ba/F3 EGFR-D770-N771ins_SVD cells incubated for 48 hrs by Cell Titer-Glo assay; type: functional, cell-based
# [8] = tested on: BaF3; test: Antiproliferative activity against mouse BaF3 cells harboring EGFR-D770-N771insNPG mutant incubated for 48 hrs by Cell Titer-Glo assay; type: functional, cell-based; conditions: BaF3, 48 h
# [9] = Antiproliferative activity against mouse Ba/F3 EGFR-H773-V774ins_NPH cells; type: functional, cell-based
# [10] = Antiproliferative activity against mouse Ba/F3 EGFR-A763_Y764insFQEA cells; type: functional, cell-based
# [11] = tested on: BaF3; test: Antiproliferative activity against mouse BaF3 cells harboring wild type EGFR incubated for 3 days by Cell Titer-Glo assay; type: functional, cell-based; conditions: BaF3, 72 h
# [12] = Antiproliferative activity against mouse Ba/F3 EGFR-A763_Y764insFQEA cells incubated for 3 days by Cell Titer-Glo assay; type: functional, cell-based; conditions: 72 h
# [13] = Antiproliferative activity against mouse Ba/F3 EGFR-V769_D770insASV cells incubated for 3 days by Cell Titer-Glo assay; type: functional, cell-based; conditions: 72 h
# [14] = Antiproliferative activity against mouse Ba/F3 EGFR-D770-N771ins_SVD cells incubated for 3 days by Cell Titer-Glo assay; type: functional, cell-based; conditions: 72 h
# [15] = tested on: BaF3; test: Antiproliferative activity against mouse BaF3 cells harboring EGFR-D770-N771insNPG mutant incubated for 3 days by Cell Titer-Glo assay; type: functional, cell-based; conditions: BaF3, 72 h
# [16] = Antiproliferative activity against mouse Ba/F3 EGFR-H773-V774ins_NPH cells incubated for 3 days by Cell Titer-Glo assay; type: functional, cell-based; conditions: 72 h
# [17] = tested on: NIH3T3; test: Antiproliferative activity against mouse NIH/3T3 cells harboring wild type EGFR incubated for 72 hrs by Cell Titer-Glo assay; type: functional, cell-based; conditions: NIH3T3, 72 h
# [18] = tested on: NIH3T3; test: Antiproliferative activity against mouse NIH/3T3 cells harboring EGFR-A763_Y764insFQEA incubated for 72 hrs by Cell Titer-Glo assay; type: functional, cell-based; conditions: NIH3T3, 72 h
# [19] = tested on: NIH3T3; test: Antiproliferative activity against mouse NIH/3T3 cells harboring EGFR-V769_D770insASV incubated for 72 hrs by Cell Titer-Glo assay; type: functional, cell-based; conditions: NIH3T3, 72 h
# [20] = tested on: NIH3T3; test: Antiproliferative activity against mouse NIH/3T3 cells harboring EGFR-D770-N771ins_SVD incubated for 72 hrs by Cell Titer-Glo assay; type: functional, cell-based; conditions: NIH3T3, 72 h
# [21] = tested on: NIH3T3; test: Antiproliferative activity against mouse NIH/3T3 cells harboring EGFR-H773-V774ins_NPH incubated for 72 hrs by Cell Titer-Glo assay; type: functional, cell-based; conditions: NIH3T3, 72 h
# [22] = tested on: BaF3; test: Antiproliferative activity against mouse Ba/F3 cells harboring EGFR-D770-N771ins_G mutant incubated for 3 days by Cell Titer-Glo assay; type: functional, cell-based; conditions: BaF3, 72 h
# [23] = tested on: BaF3; test: Antiproliferative activity against mouse Ba/F3 cells harboring EGFR-H773-V774ins_PH mutant incubated for 3 days by Cell Titer-Glo assay; type: functional, cell-based; conditions: BaF3, 72 h
# [24] = biological target: Epidermal growth factor receptor (Homo sapiens, UniProt P00533); test: Inhibition of wildtype EGFR (unknown origin) phosphorylation
# [25] = biological target: Epidermal growth factor receptor (Homo sapiens, UniProt P00533, D770-N771INSNPG); test: Inhibition of EGFR-D770-N771insNPG mutant (unknown origin) phosphorylation
# [26] = Selectivity index, ratio of IC50 for antiproliferative activity against mouse BaF3 cells harboring wild type EGFR to IC50 for antiproliferative activity against mouse Ba/F3 EGFR-A763_Y764insFQEA cells; type: functional
# [27] = Selectivity index, ratio of IC50 for antiproliferative activity against mouse BaF3 cells harboring wild type EGFR to IC50 for antiproliferative activity against mouse Ba/F3 EGFR-D770-N771ins_SVD cells; type: functional
# [28] = Selectivity index, ratio of IC50 for antiproliferative activity against mouse BaF3 cells harboring wild type EGFR to IC50 for antiproliferative activity against mouse BaF3 cells harboring EGFR-D770-N771insNPG mutant; type: functional
# [29] = Selectivity index, ratio of IC50 for antiproliferative activity against mouse BaF3 cells harboring wild type EGFR to IC50 for antiproliferative activity against mouse Ba/F3 EGFR-H773-V774ins_NPH cells; type: functional
# [30] = Antiproliferative activity against mouse Ba/F3 EGFR-A763_Y764insFQEA cells incubated for 72 hrs by CCK-8 assay; type: functional, cell-based
# [31] = Antiproliferative activity against mouse Ba/F3 EGFR-V769_D770insASV cells incubated for 72 hrs by CCK-8 assay; type: functional, cell-based
# [32] = Antiproliferative activity against mouse Ba/F3 EGFR-D770-N771ins_SVD cells incubated for 72 hrs by CCK-8 assay; type: functional, cell-based
# [33] = Antiproliferative activity against mouse Ba/F3 EGFR-H773-V774ins_NPH cells incubated for 72 hrs by CCK-8 assay; type: functional, cell-based
# [34] = tested on: BaF3; test: Antiproliferative activity against mouse BaF3 cells harboring EGFR exon 20 insertion mutant incubated for 72 hrs by Cell Titer-Glo assay; type: functional, cell-based; conditions: BaF3, 72 h
# [35] = tested on: BaF3; test: Potency index, ratio of afatinib IC50 to test compound IC50 for antiproliferative activity against mouse BaF3 cells harboring EGFR exon 20 insertion mutant incubated for 72 hrs by Cell Titer-Glo assay; type: functional
# [36] = Antiproliferative activity against human CUTO14 cells harboring EGFR V769_D770insASV mutant incubated for 72 hrs by Cell Titer-Glo assay; type: functional, cell-based; conditions: CUTO14, 72 h
# [37] = Antiproliferative activity against human YUL-0019 cells harboring EGFR N771delinsFH mutant incubated for 72 hrs by Cell Titer-Glo assay; type: functional, cell-based; conditions: YUL-0019, 72 h
# [38] = Metabolic stability in human hepatocytes assessed as intrinsic clearance measured per 10^6 cells at 100 uM measured upto 100 mins by LC-MS/MS analysis; type: ADME, cell-based, Hepatocyte; conditions: read-out: CLH
# [39] = Antiproliferative activity against human CUTO14 cells harboring EGFR V769_D770insASV mutant incubated for 72 hrs by MTS assay; type: functional, cell-based; conditions: CUTO14, 72 h
# Sequence of Epidermal growth factor receptor (Homo sapiens, UniProt P00533, D770-N771INSNPG) (P00533 whole entry, looked up, stated change not applied): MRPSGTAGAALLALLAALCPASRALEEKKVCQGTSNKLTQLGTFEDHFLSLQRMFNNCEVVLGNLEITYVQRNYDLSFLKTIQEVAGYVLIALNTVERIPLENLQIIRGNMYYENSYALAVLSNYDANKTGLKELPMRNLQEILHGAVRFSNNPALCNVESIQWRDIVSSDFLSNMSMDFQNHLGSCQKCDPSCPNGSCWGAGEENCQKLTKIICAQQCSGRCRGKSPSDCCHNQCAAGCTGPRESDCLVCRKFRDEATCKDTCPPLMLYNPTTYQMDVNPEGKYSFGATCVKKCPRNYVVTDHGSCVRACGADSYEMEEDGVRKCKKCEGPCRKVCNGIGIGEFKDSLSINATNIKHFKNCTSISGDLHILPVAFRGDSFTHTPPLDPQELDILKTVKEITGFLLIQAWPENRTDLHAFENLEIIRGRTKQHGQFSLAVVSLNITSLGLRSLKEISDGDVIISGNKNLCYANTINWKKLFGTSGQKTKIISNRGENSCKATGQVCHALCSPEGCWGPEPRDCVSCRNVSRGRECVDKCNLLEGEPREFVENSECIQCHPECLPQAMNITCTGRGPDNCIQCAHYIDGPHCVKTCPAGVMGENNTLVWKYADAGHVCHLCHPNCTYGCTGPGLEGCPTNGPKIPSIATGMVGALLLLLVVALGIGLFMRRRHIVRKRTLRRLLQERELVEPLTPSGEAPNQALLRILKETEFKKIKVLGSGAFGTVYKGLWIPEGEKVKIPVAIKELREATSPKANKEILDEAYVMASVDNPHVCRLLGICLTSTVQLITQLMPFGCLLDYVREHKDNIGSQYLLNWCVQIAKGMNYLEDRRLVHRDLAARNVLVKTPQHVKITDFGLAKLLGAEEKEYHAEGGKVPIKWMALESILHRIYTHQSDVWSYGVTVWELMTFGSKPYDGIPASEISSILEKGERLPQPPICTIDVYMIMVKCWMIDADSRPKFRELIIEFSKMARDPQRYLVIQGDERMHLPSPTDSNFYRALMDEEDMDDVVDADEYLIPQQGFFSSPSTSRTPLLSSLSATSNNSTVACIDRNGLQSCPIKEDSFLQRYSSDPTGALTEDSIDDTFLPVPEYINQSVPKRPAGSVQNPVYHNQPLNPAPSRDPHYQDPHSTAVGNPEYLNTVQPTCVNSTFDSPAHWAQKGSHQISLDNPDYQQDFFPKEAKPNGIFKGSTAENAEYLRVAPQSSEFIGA
# Sequence of Epidermal growth factor receptor (Homo sapiens, UniProt P00533) (P00533 whole entry): as the sequence (P00533 whole entry, looked up, stated change not applied) above
smiles,measurement,setting,value
C=CC(=O)Nc1cccc(N(C(=O)OCc2ccc(F)cc2)c2ccnc(Nc3cnn(C)c3)n2)c1,IC50,[1],7.6 nM
same,IC50,[2],15 nM
same,Ratio IC50,[3],0.22
same,IC50,[4],34 nM
COc1c(F)cccc1Nc1c(-c2ccncc2OCC(C)(C)OC)[nH]c2c1C(=O)NCC2,Ratio IC50,[3],25.9
same,IC50,[5],397 nM
same,IC50,[6],15.3 nM
same,IC50,[7],11.9 nM
same,IC50,[8],12.8 nM
COc1c(Cl)cccc1Nc1c(-c2ccncc2C#C[C@@]2(C)CCCN2C(=O)/C=C/CN(C)C)[nH]c2c1C(=O)NCC2,IC50,[2],6.22 nM
same,IC50,[4],5.62 nM
same,IC50,[9],16.7 nM
same,IC50,[10],7.7 nM
CN(C)C/C=C/C(=O)Nc1cc2c(Nc3ccc(F)c(Cl)c3)ncnc2cc1O[C@H]1CCOC1 [AFATINIB],IC50,[11],3.8 nM
same,IC50,[12],2.7 nM
same,IC50,[13],46 nM
same,IC50,[14],163 nM
same,IC50,[15],40 nM
same,IC50,[16],102 nM
same,Ratio IC50,[3],0.08
C=CC(=O)N[C@H]1C=C(C)c2c(-c3cnc4ccccc4c3)c3c(N)ncnc3n2C1 [CLN-081],IC50,[11],676 nM
same,IC50,[12],5 nM
same,IC50,[13],5 nM
same,IC50,[14],5 nM
same,IC50,[16],5 nM
same,IC50,[17],368 nM
same,IC50,[18],< 4.48 nM
same,IC50,[19],78.2 nM
same,IC50,[20],23.4 nM
same,IC50,[21],66.7 nM
same,IC50,[22],5 nM
same,IC50,[23],5 nM
same,IC50,[24],8 nM
same,IC50,[25],7.4 nM
C#Cc1cccc(Nc2ncnc3cc(OCCOC)c(OCCOC)cc23)c1 [ERLOTINIB],IC50,[11],71 nM
same,IC50,[12],214 nM
same,IC50,[13],1340 nM
same,IC50,[14],3480 nM
same,IC50,[15],2320 nM
same,IC50,[16],2700 nM
same,Ratio IC50,[3],0.05
C=CC(=O)Nc1cc(Nc2ncc(C(=O)OC(C)C)c(-c3cn(C)c4ccccc34)n2)c(OC)cc1N(C)CCN(C)C [MOBOCERTINIB],IC50,[11],34.5 nM
same,IC50,[12],11.8 nM
same,IC50,[13],10.9 nM
same,IC50,[14],22.5 nM
same,IC50,[15],4.3 nM
same,IC50,[16],18.1 nM
same,Ratio IC50,[3],3.17
same,Ratio IC50,[26],1.5
same,Ratio IC50,[27],1.5
same,Ratio IC50,[28],1.5
same,Ratio IC50,[29],1.5
C=CC(=O)Nc1cc(Nc2nccc(-c3cn(C)c4ccccc34)n2)c(OC)cc1N(C)CCN(C)C [OSIMERTINIB],IC50,[11],350 nM
same,IC50,[12],87 nM
same,IC50,[13],173 nM
same,IC50,[14],576 nM
same,IC50,[15],57 nM
same,IC50,[16],469 nM
same,Ratio IC50,[3],2.02
C=CC(=O)N1CCC(Oc2cc3c(Nc4ccc(Cl)c(Cl)c4F)ncnc3cc2OC)CC1 [POZIOTINIB],IC50,[30],0.7 nM
same,IC50,[31],4.8 nM
same,IC50,[32],2.7 nM
same,IC50,[33],2.2 nM
same,IC50,[34],1 nM
same,Ratio IC50,[35],~40
same,IC50,[36],1.8 nM
same,IC50,[37],0.3 nM
C=CC(=O)Nc1cc(Nc2nccc(Nc3cc(Cl)c(F)cc3C(C)(C)O)n2)c(OC)cc1N1CC[C@@H](N(C)C)C1 [SUNVOZERTINIB],IC50,[11],12.7 nM
same,IC50,[13],22.1 nM
same,IC50,[16],29.6 nM
same,Ratio IC50,[3],0.57
same,hepatocyte CLint at 100 µM,[38],2.77 µL/min/1e6 cells
CN(C)C/C=C/C(=O)Nc1cc2c(Nc3ccc(Cl)c(Br)c3)ncnc2cn1 [TH-4000E],IC50,[30],< 0.5 nM
same,IC50,[31],7.6 nM
same,IC50,[32],7.3 nM
same,IC50,[33],9.9 nM
same,IC50,[39],72 nM
C=CC(=O)Nc1cc2c(Nc3ccc(OCc4ccccn4)c(Cl)c3)ncnc2cc1OCCN1CCOCC1 [TUXOBERTINIB],IC50,[1],~1000 nM
same,IC50,[2],< 100 nM
